# Test results from US11464750B2, “Anticancer agent and use thereof” (priority 2017, dated 2022).
# Columns and labels:
# Format in all cases: cell-based, human
# [1] = system: PTEN; test: Western blotting, PTEN, BALL-1 cells; details: 0.5 μM
# Description: The effect of 3EZ,20Ac-ingenol treatment on PTEN, p-PTEN, and p-Akt of BALL-1 cells was examined. First, BALL-1 cells were cultured for 3, 6, 12, 24, and 48 hours in the presence of 3EZ,20Ac-ingenol at a final concentration of 0.5 μM, and by Western blotting using an anti-PTEN antibody (Santa Cruz), an anti-p-PTEN (Ser^380/Thr^382/383) antibody (Santa Cruz), and an anti-p-Akt (Ser^473) antibody (Cell Signaling Technology), abundances of PTEN, p-PTEN, and p-Akt in the entire cell fraction were analyzed. In addition, cells cultured in the absence of 3EZ,20Ac-ingenol were used as controls.
# Subsequently, siRNA against PTEN (“ON-TARGET Plus Human PTEN (5728) siRNA-SMARTpool,” GE Dharmacon) was introduced into BALL-1 cells at a final concentration of 50 nM and incubated for 48 hours. Subsequently, a cell medium was replaced with a new medium and cultured for 12, 24, and 48 hours in the presence or absence of 3EZ,20Ac-ingenol at a final concentration of 0.5 μM, and by Western blotting using an anti-PTEN antibody (Santa Cruz) and an anti-p-Akt (Ser^473) antibody (Cell Signaling Technology), abundances of PTEN protein and p-Akt were analyzed.
# [2] = system: ATR protein; test: Western blotting, ATR protein, Panc-1 cells; details: 3 μM
# Description: (§1) Specifically, JeKo-1 cells were cultured for 0 (control), 12, 24, and 48 hours in the presence of 0.5 μM of 3EZ,20Ac-ingenol. In addition, Panc-1 cells were cultured for 0 (control), 12, 24, and 48 hours in the presence of 3 μM of 3EZ,20Ac-ingenol.
# (§2) Subsequently, ATR protein, p53 protein, and phosphorylated p53 (hereinafter also referred to as “p-p53”) protein in the respective cells were respectively detected using an anti-ATR antibody (Cell Signaling Technology), an anti-p53 antibody (Santa Cruz), and an anti-p-p53 antibody (Cell Signaling Technology). Furthermore, as a loading control, actin protein was detected using an anti-actin antibody (Sigma).
# [3] = system: phosphorylated H2AX (γH2AX); test: Western blotting, phosphorylated H2AX, JeKo-1 cells; details: 0.5 μM, 12 hours after treatment
# Description: Specifically, JeKo-1 cells were cultured for 0 (control), 12, 24 and 48 hours in the presence of 0.5 μM of 3EZ,20Ac-ingenol. In addition, Panc-1 cells were cultured for 0 (control), 12, 24, and 48 hours in the presence of 3 μM of 3EZ,20Ac-ingenol.
# Subsequently, phosphorylation of H2AX in the respective cells was detected using an anti-phosphorylated-H2AX antibody (Millipore). In addition, p21 protein was detected using an anti-p21 antibody (Cell Signaling Technology). Furthermore, as a loading control, actin protein was detected using an anti-actin antibody (Sigma).
# [4] = system: BALL-1 cells; test: MTT assay, BALL-1 cells with siRNA against ATR; details: 0.5 μM, 48 hours
# Description: An effect of ATR activity on cell proliferation inhibition was examined. In the same manner as in Experimental Example 9, siRNA against ATR was introduced into BALL-1 cells, and the cells were incubated for 48 hours. Subsequently, a cell medium was replaced with a medium containing 3EZ,20Ac-ingenol at a final concentration of 0.5 μM, and culturing was performed for 48 hours.
# For comparison, BALL-1 cells cultured for 48 hours in a medium containing 3EZ,20Ac-ingenol at a final concentration of 0.5 μM without introduction of siRNA were used. In addition, as controls, cells into which control siRNA (“ON-TARGET Plus Nontargeting pool,” GE Dharmacon) was introduced and which were then cultured in the absence of 3EZ,20Ac-ingenol were used.
# [5] = system: GSK-3β; test: Western blotting, GSK-3β, JeKo-1 cells; details: 0.5 μM, entire cell, 24 hours
# Description: (§3) Specifically, first, JeKo-1 cells were cultured for 0 (control), 12, 24, and 48 hours in the presence of 0.5 μM of 3EZ,20Ac-ingenol. In addition, Panc-1 cells were cultured for 0 (control), 12, 24, and 48 hours in the presence of 3 μM of 3EZ,20Ac-ingenol.
# (§4) Subsequently, abundances of GSK-3β and p-GSK-3β in the respective cells were analyzed by Western blotting using an anti-GSK-3β antibody (Cell Signaling Technology) and an anti-p-GSK-3β (Ser^9) antibody (Cell Signaling Technology). Furthermore, as a loading control, actin protein was detected using an anti-actin antibody (Sigma).
# [6] = system: BALL-1 cells; test: MTT assay, BALL-1 cells; details: 0.01, 0.05, 0.1, 0.5, and 1 μM, 48 hours
# Description: BALL-1 cells of a cell line derived from […], TKG0210 cells of a human myeloid leukemia cell line, and TKG0377 cells of a human T cell acute leukemia cell line were seeded in 96-well plates at 2.5×10^4 cells/well/100 μL, and cultured for 48 hours in the presence of 3EZ,20Ac-ingenol at final concentrations of 0 (control), 0.5, 1, 5, and 10 μM. Subsequently, cell proliferation was examined by MTT assay using a Cell Proliferation Kit 1 (Roche Applied Science).
# BALL-1 cells were exposed to 3EZ,20Ac-ingenol, 3EE,20Ac-ingenol, 20Ac-ingenol, and ingenol at concentrations of 0.01, 0.05, 0.1, 0.5, and 1 μM for 48 hours. Thereafter, cell proliferation was examined by MTT assay. Cells that were not exposed to the chemical were used as controls. The chemical formulas of 3EZ,20Ac-ingenol, 3EE,20Ac-ingenol, and 20Ac-ingenol are as described above. The chemical formula of ingenol is shown in the following Formula (7).
# [7] = system: phosphorylated p53 (p-p53) protein; test: Western blotting, phosphorylated p53, Panc-1 cells; details: 3 μM
# Description: as §1, §2
# [8] = system: phosphorylated p53 (p-p53) protein; test: Western blotting, phosphorylated p53, JeKo-1 cells; details: 0.5 μM, entire cells
# Description: as §1, §2
# [9] = system: GSK-3β; test: Western blotting, GSK-3β, Panc-1 cells; details: 3 μM, entire cell, 12 hours
# Description: as §3, §4
# [10] = system: PTEN protein; test: Western blotting, PTEN protein, JeKo-1 cells; details: 0.5 μM
# Description: as §3
# Subsequently, abundances of PTEN protein in entire cell fractions, nuclear fractions, and cytoplasm fractions of the respective cells were analyzed by Western blotting using an anti-PTEN antibody (Santa Cruz). Furthermore, as a loading control, actin protein was detected using an anti-actin antibody (Sigma).
structure (smiles),measurement,setting,value
"CCCCC/C=C\C=C\C(=O)O[C@H]1C(C)=C[C@]23C(=O)[C@@H](C=C(COC(C)=O)[C@@H](O)[C@]12O)[C@H]1[C@@H](C[C@H]3C)C1(C)C [3EZ,20Ac-ingenol, 3-O-(2′E,4′Z-decadienoyl)-20-O-acetylingenol]",abundance of PTEN,"[1]; 3 to 48 hours, entire cell fraction",an increase in abundance of PTEN
same,expression level of PTEN,"[1]; cells with siRNA against PTEN introduced, 12 hours, further increased 24 and 48 hours",an increase in expression level of PTEN was observed
same,expression level of ATR protein,"[2]; 12 hours, further increase 24 hours after treatment",an increase in expression level of ATR protein was recognized
same,expression level of ATR protein,[2]; 48 hours after treatment,a decrease was recognized
same,phosphorylation of H2AX,[3],phosphorylation of H2AX was detected
same,reduction of cell proliferation inhibition by knockdown of ATR,[4],about 20%
same,GSK-3β (an active type),[5],an increase in GSK-3β was observed
same,inhibition of proliferation of the BALL-1 cells,[6],a significant level of inhibition of proliferation
same,phosphorylation of p53,"[7]; 12 hours after treatment, entire cells",phosphorylation of p53 was observed
same,amount of phosphorylated p53 protein,[7]; nuclear fraction and cytoplasm fraction,the amount of phosphorylated p53 protein increased
same,phosphorylation of p53,[8],phosphorylation of p53 was not confirmed
same,GSK-3β (an active type),[9],an increase in GSK-3β was observed
same,abundance of PTEN protein,"[10]; cytoplasm fraction, 12 hours to 24 hours",an increase in abundance of PTEN protein in the cytoplasm fraction was observed
same,abundance of PTEN protein,"[10]; cytoplasm fraction, 48 hours",a decrease in abundance of PTEN protein was observed
same,abundance of PTEN protein,"[10]; entire cell fraction, 12 hours until 48 hours",an abundance of PTEN protein increased
same,abundance of PTEN protein,"[10]; nuclear fraction, 12 hours to 24 hours",an increase in abundance of PTEN protein in the nuclear fraction was observed
